Experimental findings from PMC9821961, “Ring-Modified Histidine-Containing Cationic Short Peptides Exhibit Anticryptococcal Activity by Cellular Disruption” (Molecules, 2022) are described below.

≈ marks a conversion by molar mass, not a printed value. Where two headings read alike, the source gives them in different places.

The subject of one assay is C. albicans. Briefly: microbe, parasite or virus in culture. The format is cell-based, Candida albicans. Conditions: 48 h. From the text:
(§1) Microbial strains: Microbial strains were procured from National Culture Collection of Pathogenic Fungi (NCCPF) at the Postgraduate Institute of Medical Education & Research (PGIMER), Chandigarh and Microbial Type Culture Collection and Gene bank (MTCC) at the Institute of Microbial Technology (IMTECH), Chandigarh, India. Peptides were screened against five different strains of fungi: viz. Candida albicans (NCCPF400034), Candida glabrata (MTCC 3019), Candida parapsilosis (NCCPF 440002), Candida krusei (NCCPF 440002) and Cryptococcus neoformans (NCCPF250316), and five strains of bacteria: viz. Escherichia coli (MTCC 2961), Staphylococcus aureus (MTCC 3160), Enterococcus faecalis (MTCC 439), Streptococcus pyogenes (MTCC 442) and Pseudomonas aeruginosa (MTCC 3542).
(§2) Growth media: Antifungal susceptibility testing was carried out using standard broth microdilution assays as per the Clinical and Laboratory Standards Institute (CLSI) guidelines for fungi. RPMI 1640 (Sigma), yeast extract, peptone and dextrose (YPED, Himedia) were used as the incubation broths. The cells were diluted to a cell density of 10^3 colony forming unit (CFU/mL) and incubated at 30 °C for 48 h. Furthermore, Muller Hinton (Himedia) media was utilized for bacterial strains and antibacterial activity was evaluated per CLSI guidelines for bacteria. Bacterial cells were diluted to a cell density of 10^5 CFU/mL and incubated at 37 °C for 24 h. Amphotericin B (Himedia, India) and rifampicin (Himedia, India) were used as standard drugs for the evaluation of activity against all the fungal and bacterial strains, respectively.
(§3) The stock solutions of peptides (2 mg/mL) were prepared in DMSO. Specific amounts of peptide from stock solution were added to a 96-well microtiter plate containing 100 μL of growth media and then serially diluted two-fold. A further 100 μL of growth media containing microbial cells were added to each well and incubated at 30–37 °C for 24–48 h. The optical density (OD) was measured at 600 nm using a BioStack Ready (BioTek Instruments, Winooski, VT, USA) microplate reader to analyze microbial growth inhibition, and IC50 and MIC values were calculated. To visualize the growth and inhibition pattern, a solution of 3-(4,5-dimethylthiazol-2-yl)-2,5-diphenyltetrazolium bromide (MTT) in water was added to the plate and incubated for 2–3 h. MTT reacts with the mitochondrial dehydrogenases, which are present only in a viable cell, to give blue colored formazan crystals. Therefore, a darker color indicates a high number of viable cells; however, non-viable cells appear pale or colorless.

The subject of a further assay is C. neoformans. Briefly: microbe, parasite or virus in culture. The assay is classed as cell-based, Cryptococcus neoformans. The conditions noted are these: 48 h.
Source text: as §1, §2, §3

A further assay has as its system C. parapsilosis. Briefly: microbe, parasite or virus in culture. The conditions noted are these: 48 h. The format is cell-based, Candida parapsilosis.
Source text: as §1, §2, §3

Another assay concerns C. krusei. Briefly: microbe, parasite or virus in culture. The assay is classed as cell-based, Candida krusei. Conditions: 48 h.
Source text: as §1, §2, §3

The test system of assay [1] is C. neoformans cells. Briefly: Time kill assay. The conditions noted are these: negative-control peptides, compared with untreated cells, 24 h.
Another assay relates to C. glabrata. Briefly: microbe, parasite or virus in culture. The assay is classed as cell-based, Candida glabrata. The conditions noted are these: 48 h.
Source text: as §1, §2, §3

The next assay concerns S. pyogens. Briefly: microbe, parasite or virus in culture. Conditions: 48 h. The assay is classed as cell-based, Streptococcus pyogenes.
For the next assay, the system named is E. coli. Briefly: microbe, parasite or virus in culture. The format is cell-based, Escherichia coli. Conditions: 48 h.
Source text: as §1
as §2, with “Bacterial cells were diluted to a cell density of 10^5 CFU/mL and incubated at 37 °C for 24 h.” left out
as §3

In a further assay the test system is P. aeruginosa. Briefly: microbe, parasite or virus in culture. The format is cell-based, Pseudomonas aeruginosa. The conditions noted are these: 48 h.
A further assay relates to S. aureus. Briefly: microbe, parasite or virus in culture. The assay is classed as cell-based, Staphylococcus aureus. The conditions noted are these: 48 h.
Source text: as §1
as §2, with “Bacterial cells were diluted to a cell density of 10^5 CFU/mL and incubated at 37 °C for 24 h.” left out
as §3

The subject of another assay is E. faecalis. Briefly: microbe, parasite or virus in culture. Conditions: 48 h. The format is cell-based, Enterococcus faecalis.
Assay [2] has as its system C. neoformans cells. Briefly: CLSM FITC-labeled peptide uptake assay. The assay is classed as cell-based, Cryptococcus neoformans. The conditions noted are these: FITC-tagged peptide, 12 h. As to the method: After incubation, cells were harvested by centrifugation at 2000× g for 10 min at 4 °C and suspended in PBS and mounted on a slide for visualization under a confocal microscope with excitation and emission wavelengths of 488 nm and 515 nm, respectively.

Assay [3] deals with Cryptococcal cells.
Assay [4] relates to Cryptococcal cells. Briefly: microbe, parasite or virus in culture. The conditions noted are these: Cryptococcus neoformans, read-out: MIC Alone.

In general, IC50 refers to the concentration at which inhibition is half-maximal. The low end stands for greater potency, the high end for weaker potency. For the compound `COC(=O)[C@H](Cc1ncn(Cc2cc(C(C)(C)C)cc(C(C)(C)C)c2)c1I)NC(=O)[C@H](Cc1c[nH]c2ccccc12)NC(=O)OC(C)(C)C` [9d], the IC50 in the assay on C. albicans, with C. neoformans, in the assay on C. parapsilosis, with C. krusei and in the assay on C. glabrata was over 35.2 µg/mL in each case. The MIC with C. albicans, with C. neoformans, against C. parapsilosis, in the assay with C. krusei and in the assay with C. glabrata was over 64.0 µg/mL in each case. In the assay on C. neoformans cells [1], the “Growth inhibition in time-kill profile” value is reported as “did not show any growth inhibition”.
`COC(=O)[C@H](Cc1ncn(Cc2cccc(C(F)(F)F)c2)c1I)NC(=O)[C@@H](N)Cc1c[nH]c2ccccc12` [10e]: the IC50 in the assay on S. pyogens is over 35.2 µg/mL; in the assay with C. albicans, over 35.2 µg/mL; in the assay on C. neoformans, 4.87 µg/mL (≈ 7.62 µM); in the assay with C. parapsilosis, over 35.2 µg/mL; with C. krusei, over 35.2 µg/mL; with E. coli, over 35.2 µg/mL. Further, the half-inhibitory concentration (IC50) in the assay with P. aeruginosa, in the assay with S. aureus, in the assay on C. glabrata and in the assay on E. faecalis was over 35.2 µg/mL each time. Besides, the MIC with S. pyogens was over 64.0 µg/mL; against C. albicans, over 64.0 µg/mL; against C. neoformans, 8.86 µg/mL (≈ 13.9 µM); against C. parapsilosis, over 64.0 µg/mL; in the assay with C. krusei, over 64.0 µg/mL; in the assay on E. coli it was over 64.0 µg/mL. In addition, the MIC against P. aeruginosa, with S. aureus, with C. glabrata and against E. faecalis was over 64.0 µg/mL each time.
`COC(=O)[C@H](Cc1ncn(Cc2cccc(Cl)c2)c1I)NC(=O)[C@@H](N)Cc1c[nH]c2ccccc12` [10l]: the IC50 with S. pyogens, with C. albicans, with C. parapsilosis, with C. krusei, in the assay with E. coli and in the assay on P. aeruginosa was over 35.2 µg/mL throughout. For the same compound, the IC50 with S. aureus, in the assay with C. glabrata and in the assay with E. faecalis was over 35.2 µg/mL in each case. For the same compound, the MIC in the assay with S. pyogens was over 64.0 µg/mL; against C. albicans it was over 64.0 µg/mL; in the assay with C. neoformans, 32.11 µg/mL (≈ 53 µM); against C. parapsilosis it was over 64.0 µg/mL; against C. krusei, over 64.0 µg/mL; with E. coli it was over 64.0 µg/mL. Moreover, the MIC in the assay with P. aeruginosa, against S. aureus, in the assay with C. glabrata and in the assay with E. faecalis was over 64.0 µg/mL throughout.
Consider `COC(=O)[C@H](Cc1ncn(Cc2ccc([N+](=O)[O-])cc2)c1I)NC(=O)[C@@H](N)Cc1c[nH]c2ccccc12` [10h], for which the IC50 in the assay on C. albicans, in the assay with C. parapsilosis, in the assay on C. krusei and in the assay with C. glabrata was over 35.2 µg/mL each time. Besides, the MIC with C. albicans, with C. neoformans, in the assay on C. parapsilosis, against C. krusei and in the assay with C. glabrata was over 64.0 µg/mL each time. The “Fluorescence of cells incubated with FITC-labeled peptide (CLSM)” value with C. neoformans cells [2] is listed as “did not show any fluorescence”.
For `OC(Cn1cncn1)(Cn1cncn1)c1ccc(F)cc1F` [Flu, fluconazole], in the assay on Cryptococcal cells [3] (combination 10o + Flu), the Effect result is “Additive”, the FICI was 1.00, the “Fold Decrease in MIC” value was determined as 2 and the “MIC In Combination” value came to 5.0 µg/mL. For the same compound, in the assay on Cryptococcal cells [3] (combination 10d + Flu), the Effect result is “Synergistic”, the FICI worked out at 0.19, the “Fold Decrease in MIC” value is 16 and the “MIC In Combination” value was found to be 0.625 µg/mL. For the same compound, the “Fold Decrease in MIC” value in the assay with Cryptococcal cells [3] (combination 10d + Flu, listed as fluconazole) is “approx. 16”. In addition, the “MIC Alone” value against Cryptococcal cells [3] (cryptococcal cells, agent alone) was 10.0 µg/mL (≈ 32.7 µM). In the assay on Cryptococcal cells [4], the MIC was 10 µg/mL (≈ 32.7 µM).
Turning to `COC(=O)[C@H](Cc1ncn(Cc2cccc(F)c2)c1I)NC(=O)[C@@H](N)Cc1c[nH]c2ccccc12` [10k], the IC50 in the assay with S. pyogens was over 35.2 µg/mL; in the assay on C. albicans, over 35.2 µg/mL; with C. neoformans, 2.78 µg/mL (≈ 4.72 µM); in the assay on C. parapsilosis, over 35.2 µg/mL; in the assay with C. krusei, over 35.2 µg/mL; with E. coli, over 35.2 µg/mL. The IC50 with P. aeruginosa, with S. aureus, in the assay with C. glabrata and with E. faecalis was over 35.2 µg/mL throughout. For the same compound, the MIC in the assay with S. pyogens is over 64.0 µg/mL; against C. albicans, over 64.0 µg/mL; against C. neoformans, 4.64 µg/mL (≈ 7.87 µM); with C. parapsilosis it was over 64.0 µg/mL; against C. krusei, over 64.0 µg/mL; against E. coli, over 64.0 µg/mL. Also, the MIC against P. aeruginosa, against S. aureus, against C. glabrata and in the assay on E. faecalis was over 64.0 µg/mL throughout.
With `COC(=O)[C@H](Cc1ncn(Cc2cccc(I)c2)c1I)NC(=O)[C@@H](N)Cc1c[nH]c2ccccc12` [10n, Trp-His[1-(3-iodobenzyl)-5-iodo]-OMe], the IC50 with S. pyogens, in the assay with C. albicans, with C. parapsilosis, with C. krusei, with E. coli and in the assay on P. aeruginosa was over 35.2 µg/mL each time. The IC50 in the assay on S. aureus, with C. glabrata and in the assay on E. faecalis was over 35.2 µg/mL throughout. In addition, the MIC in the assay on S. pyogens is over 64.0 µg/mL; against C. albicans, over 64.0 µg/mL; with C. neoformans it was 32.05 µg/mL (≈ 46 µM); in the assay with C. parapsilosis, over 64.0 µg/mL; in the assay on C. krusei, over 64.0 µg/mL; with E. coli it was over 64.0 µg/mL. Besides, the MIC against P. aeruginosa, in the assay with S. aureus, against C. glabrata and with E. faecalis was over 64.0 µg/mL throughout.
